This is an account of results in patent US5057494A, “Method for preventing tissue damage after an ischemic episode” (Ethicon, Inc., priority 1988, dated 1991).

In one assay the test system is gerbils. The experiment in a line: Spontaneous locomotor activity after 5-min bilateral carotid occlusion (photocell activity chambers). In kind it is in vivo, gerbil. The note with it: for Motor Activity at 24 hours: Example 2, saline 3028; for Spontaneous locomotor activity: Table 1, mean of 6 gerbils. The text has this:
(§1) The present example is based on a surgical procedure that has been developed to study the effects of cerebral or brain ischemia in the unanesthetized gerbil. The methodology is based upon the surgical isolation and instrumentation of both common carotid arteries. A loop of dental floss is placed around each carotid artery and passed through a double lumen catheter material; this allows for later occlusion of the carotid arteries and their release in the unanesthetized subject. […] Behavioral changes consequent to stroke are useful and pertinent as a means of evaluation in this model of nonlethal transient ischemia Emotional lability, depression, agitation and motor and cognitive deficits are common after stroke. The psychomotor depression noted immediately after transient ischemia in this gerbil model mimics the clinical situation in humans. Spontaneous motor activity is an indicator of aroused state and is a behavior commonly measured in psychopharmacology research. Changes in locomotor activity have been shown in extensive pharmacological and toxicology studies to provide reliable, reproducible first-assessment data about neurological status. The details of this method are more fully set forth in Chandler, M.J. et al., J. Pharm. Meth. 14:137-146 (1985).
(§2) Ligatures externalized through double lumen catheters were surgically placed around both common carotid arteries of mature (50-60 gram) gerbils. After allowing recovery from surgery, conscious gerbils were subjected to a 5 minute period of bilateral carotid occlusion by tightening the ligatures. Spontaneous motor activity was then periodically monitered over seven days followed by animal sacrifice and blinded histological evaluation of brain sections. EGF (0.1 and 1.0 mg/kg) and FGF (0.1, 1.0 and 10.0 mg/kg) were given intraperitoneally in saline at one hour pre-occlusion and one, three, five and seven hours post-occlusion. Two control groups (occluded and non-occluded) received saline by the same route.
Spontaneous locomotor activity was recorded using photocell activity chambers. The chambers were two-foot circular arenas that were individually housed in sound attenuating compartments ventilated by a fan. Activity was monitored by two orthogonally placed photocell circuits. A single break of the photocell light beam by the animal's movements defined an activity count counts were monitored and recorded as a function of time. The data in Tables 1 and 2 represent activity counts.
(§3) Gerbils were treated as in Example 1, except that dosing was at 1,3,5 and 7 hours post-occlusion only.

In assay [1] the test system is hippocampal pyramidal cell layer. In words: Blinded histological evaluation of brain sections after 5-min bilateral carotid occlusion. Type of assay: in vivo, gerbil. Particulars: for Protection of the animal's neurons (in words): as monitored by motor activity or histology; for Average Histopathology Score: Example 2, saline 4.8, scale 0-5 of Table 4.
Text: as §1, §2, §3

[2] abbreviates: 0.01 mg/kg i.p. at 1,3,5,7 h post-occlusion only.
The mark [3] stands for this setting: 0.1 mg/kg i.p. at 1,3,5,7 h post-occlusion only.
Where [4] appears, read: 1 mg/kg i.p. at 1,3,5,7 h post-occlusion only.

Regarding “EGF: epidermal growth factor; polypeptide growth factor (human EGF is fifty-three amino acids); source of tested material not stated”, the “Motor Activity at 24 hours” value in the assay on gerbils (setting [2]) is on record as 1891; in the assay with gerbils (setting [3]) it was 1051; in the assay on gerbils (setting [4]) it was 715. The Spontaneous locomotor activity with gerbils (0.1 mg/kg i.p. at 1 h pre- and 1,3,5,7 h post-occlusion, 6 h after ischemia, saline post-ischemic 2366, non-ischemic 485) stood at 1511 activity counts; in the assay on gerbils (0.1 mg/kg i.p. at 1 h pre- and 1,3,5,7 h post-occlusion, 24 h after ischemia, saline post-ischemic 1960, non-ischemic 529), 658 activity counts; in the assay on gerbils (0.1 mg/kg i.p. at 1 h pre- and 1,3,5,7 h post-occlusion, 48 h after ischemia, saline post-ischemic 2145, non-ischemic 613), 687 activity counts; in the assay with gerbils (0.1 mg/kg i.p. at 1 h pre- and 1,3,5,7 h post-occlusion, 72 h after ischemia, saline post-ischemic 1011, non-ischemic 579), 715 activity counts; with gerbils (0.1 mg/kg i.p. at 1 h pre- and 1,3,5,7 h post-occlusion, 96 h after ischemia, saline post-ischemic 895, non-ischemic 493), 626 activity counts; in the assay on gerbils (0.1 mg/kg i.p. at 1 h pre- and 1,3,5,7 h post-occlusion, 120 h after ischemia, saline post-ischemic 486, non-ischemic 463), 511 activity counts. Moreover, the Spontaneous locomotor activity in the assay on gerbils (1.0 mg/kg i.p. at 1 h pre- and 1,3,5,7 h post-occlusion, 6 h after ischemia, saline post-ischemic 2366, non-ischemic 485) is on record as 705 activity counts; with gerbils (1.0 mg/kg i.p. at 1 h pre- and 1,3,5,7 h post-occlusion, 24 h after ischemia, saline post-ischemic 1960, non-ischemic 529), 766 activity counts; in the assay on gerbils (1.0 mg/kg i.p. at 1 h pre- and 1,3,5,7 h post-occlusion, 48 h after ischemia, saline post-ischemic 2145, non-ischemic 613), 588 activity counts; with gerbils (1.0 mg/kg i.p. at 1 h pre- and 1,3,5,7 h post-occlusion, 72 h after ischemia, saline post-ischemic 1011, non-ischemic 579) it was 463 activity counts; in the assay with gerbils (1.0 mg/kg i.p. at 1 h pre- and 1,3,5,7 h post-occlusion, 96 h after ischemia, saline post-ischemic 895, non-ischemic 493), 445 activity counts; in the assay with gerbils (1.0 mg/kg i.p. at 1 h pre- and 1,3,5,7 h post-occlusion, 120 h after ischemia, saline post-ischemic 486, non-ischemic 463), 314 activity counts. The “Protection of the animal's neurons (in words)” value is on record as “modest protection” in assay [1] (0.1 mg/kg i.p. pre- and post-occlusion); “almost total protection” in assay [1] (1 mg/kg i.p. pre- and post-occlusion). Moreover, the “Average Histopathology Score” value in assay [1] (setting [2]) amounted to 4.7; in assay [1] (setting [3]) it was 1.5; in assay [1] (setting [4]), 2.2.
